Measured values taken from patent US11304929B2, “Tosylacetate based compounds and derivatives thereof as PHGDH inhibitors” (priority 2017, dated 2022).
Like-named read-outs stand apart in the source and are kept apart here.

Target: PHGDH (Homo sapiens (Human), UniProt O43175)
Assay: 3-Phosphoglycerate Dehydrogenase (PHGDH) Fluorescence Intensity Assay, run at two NAD/3-PG ratios: PHGDH_HIGH_NAD/3-PG (250 μM NAD/500 μM 3-PG) and PHGDH_500_NAD/3-PG (500 μM NAD/500 μM 3-PG)
Assay type: biochemical
[1] = 250 μM NAD/500 μM 3-PG, read-out: IC50 (PHGDH_HIGH_NAD/3-PG)
[2] = 500 μM NAD/500 μM 3-PG, read-out: IC50 (PHGDH_500_NAD/3-PG)

PHGDH, sequence (O43175 2-533 limits assumed): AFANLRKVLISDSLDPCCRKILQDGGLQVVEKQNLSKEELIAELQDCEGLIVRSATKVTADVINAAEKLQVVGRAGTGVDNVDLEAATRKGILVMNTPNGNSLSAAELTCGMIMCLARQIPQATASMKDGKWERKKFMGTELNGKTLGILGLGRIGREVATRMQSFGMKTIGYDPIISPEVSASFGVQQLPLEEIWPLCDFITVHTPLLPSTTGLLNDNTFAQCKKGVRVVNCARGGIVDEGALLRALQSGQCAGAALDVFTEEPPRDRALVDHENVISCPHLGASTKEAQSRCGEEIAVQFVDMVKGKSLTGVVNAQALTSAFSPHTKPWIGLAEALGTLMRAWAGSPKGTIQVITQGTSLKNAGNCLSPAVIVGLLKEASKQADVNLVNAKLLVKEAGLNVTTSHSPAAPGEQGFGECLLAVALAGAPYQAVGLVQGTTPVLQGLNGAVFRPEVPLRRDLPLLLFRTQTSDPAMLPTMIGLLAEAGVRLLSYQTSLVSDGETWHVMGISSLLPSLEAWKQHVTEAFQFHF

Compound	IC50 [1]	IC50 [2]
COC(=O)C(C)(C)S(=O)(=O)c1ccc([C@@H](C)NC(=O)c2cc3cc(Cl)ccc3n2C)cc1 [Example 05-002, methyl 2-{4-[(1R)-1-[(5-chloro-1-methyl-1H-indol-2-yl)formamido]ethyl]benzenesulfonyl}-2-methylpropanoate]	33100 nM	
Cc1cc(Cl)c2cc(C(=O)N[C@H](C)c3ccc(S(=O)(=O)CC(=O)OCC(COC(=O)C(C)(C)C)COC(=O)C(C)(C)C)cc3)n(C)c2c1 [Example 09-015, 2-{[(2-{4-[(1R)-1-[(4-chloro-1,6-dimethyl-1H-indol-2-yl)formamido]ethyl]benzenesulfonyl}acetyl)oxy]methyl}-3-[(2,2-dimethylpropanoyl)oxy]propyl 2,2-dimethylpropanoate]	9190 nM	
C[C@@H](NC(=O)c1cc2cc(Cl)ccc2n1C)c1ccc(S(=O)(=O)C(C)(C)C(=O)O)cc1 [Example 07-007, 2-{4-[(1R)-1-[(5-chloro-1-methyl-1H-indol-2-yl)formamido]ethyl]benzenesulfonyl}-2-methylpropanoic acid]	209 nM	
Cc1cc(Cl)c2cc(C(=O)N[C@H](C)c3ccc(S(=O)(=O)CC(=O)OCC(CO)COC(=O)C(C)(C)C)cc3)n(C)c2c1 (stereo partly drawn) [Example 09-026, 2-{[(2-{4-[(1R)-1-[(4-chloro-1,6-dimethyl-1H-indol-2-yl)formamido]ethyl]benzenesulfonyl}acetyl)oxy]methyl}-3-hydroxypropyl 2,2-dimethylpropanoate]	1410 nM	
COC(C)(C)COC(=O)CS(=O)(=O)c1ccc([C@@H](C)NC(=O)c2cc3c(Cl)cc(C)cc3n2C)cc1 [Example 09-021, 2-methoxy-2-methylpropyl 2-{4-[(1R)-1-[(4-chloro-1,6-dimethyl-1H-indol-2-yl)formamido]ethyl]benzenesulfonyl}acetate]	574 nM	
Cc1cc(Cl)c2cc(C(=O)N[C@H](C)c3ccc([S@+]([O-])CC(=O)O)cc3)n(C)c2c1 [Example 12-005, 2-[(R)-4-[(1R)-1-[(4-chloro-1,6-dimethyl-1H-indol-2-yl)formamido]ethyl]benzenesulfinyl]acetic acid]	17 nM	28 nM
Cc1cc2c(cc(C(=O)N[C@H](C)c3ccc(S(=O)(=O)C4CCOC4=O)cc3)n2C)c(F)c1F (stereo partly drawn) [Example 05-024, 4,5-difluoro-1,6-dimethyl-N-[(1R)-1-{4-[(2-oxooxolan-3-yl)sulfonyl]phenyl}ethyl]-1H-indole-2-carboxamide]		119 nM
Cc1cc2c(cc(C(=O)N[C@H](CO)c3ccc([S@@+]([O-])CC(=O)OC(C)C)cc3)n2C)c(Cl)c1Cl [Example 13-002, propan-2-yl 2-[(S)-4-[(1S)-1-[(4,5-dichloro-1,6-dimethyl-1H-indol-2-yl)formamido]-2-hydroxyethyl]benzenesulfinyl]acetate]	819 nM	1020 nM
COC(=O)CS(=O)(=O)c1ccc(C(C)NC(=O)c2cc3c(Cl)cc(I)cc3n2C)cc1 (stereo not drawn) [Example 01-020, methyl 2-(4-{1-[(4-chloro-6-iodo-1-methyl-1H-indol-2-yl)formamido]ethyl}benzenesulfonyl)acetate]	1790 nM	
Cc1cc(Cl)c2cc(C(=O)N[C@H](CO)c3ccc(S(=O)(=O)CC(=O)OC(C)C)cc3)n(C)c2c1 [Example 01-038, propan-2-yl 2-{4-[(1S)-1-[(4-chloro-1,6-dimethyl-1H-indol-2-yl)formamido]-2-hydroxyethyl]benzenesulfonyl}acetate]	261 nM	
Cc1cc2c(cc(C(=O)N[C@H](CO)c3ccc(S(=O)(=O)CC(=O)OCCCO)cc3)n2C)c(F)c1F [Example 09-038, 3-hydroxypropyl 2-{4-[(1S)-1-[(4,5-difluoro-1,6-dimethyl-1H-indol-2-yl)formamido]-2-hydroxyethyl]benzenesulfonyl}acetate]		255 nM
Cc1cc2c(cc(C(=O)N[C@H](CO)c3ccc([S@+]([O-])CC(=O)OC(C)C)cc3)n2C)c(Cl)c1Cl [Example 13-001, propan-2-yl 2-[(R)-4-[(1S)-1-[(4,5-dichloro-1,6-dimethyl-1H-indol-2-yl)formamido]-2-hydroxyethyl]benzenesulfinyl]acetate]	204 nM	305 nM
Cc1cc(Cl)c2cc(C(=O)N[C@H](C)c3ccc(S(=O)(=O)C(C)C(=O)O)cc3)n(C)c2c1 (stereo partly drawn) [Example 07-003, 2-{4-[(1R)-1-[(4-chloro-1,6-dimethyl-1H-indol-2-yl)formamido]ethyl]benzenesulfonyl}propanoic acid]	8 nM	
COC(=O)C1(S(=O)(=O)c2ccc([C@@H](CO)NC(=O)c3cc4c(Cl)cc(C)cc4n3C)cc2)CCOCC1 [Example 05-021, methyl 4-{4-[(1S)-1-[(4-chloro-1,6-dimethyl-1H-indol-2-yl)formamido]-2-hydroxyethyl]benzenesulfonyl}oxane-4-carboxylate]	2450 nM	
CC(C)OC(=O)C(C)S(=O)(=O)c1ccc([C@@H](CO)NC(=O)c2cc(-c3ccc(F)cc3)nn2C)cc1 (stereo partly drawn) [Example 06-007, propan-2-yl 2-{4-[(1S)-1-{[3-(4-fluorophenyl)-1-methyl-1H-pyrazol-5-yl]formamido}-2-hydroxyethyl]benzenesulfonyl}propanoate]	29600 nM	
C[C@@H](NC(=O)c1cc(-c2ccccc2)nn1C)c1ccc(S(=O)(=O)CC(=O)OCCF)cc1 [Example 10-004, 2-fluoroethyl 2-{4-[(1R)-1-[(1-methyl-3-phenyl-1H-pyrazol-5-yl)formamido]ethyl]benzenesulfonyl}acetate]	1440 nM	
Cc1cc(Cl)c2cc(C(=O)N[C@H](CO)c3ccc([S+]([O-])CC(=O)OC(C)C)cc3)n(C)c2c1 (stereo partly drawn) [Example 13-008, propan-2-yl 2-{4-[(1S)-1-[(4-chloro-1,6-dimethyl-1H-indol-2-yl)formamido]-2-hydroxyethyl]benzenesulfinyl}acetate]	695 nM	1200 nM
COC(=O)CS(=O)(=O)c1ccc([C@@H](C)NC(=O)c2cc3cc(Cl)ccc3n2C)cc1 [Example 01-019, methyl 2-{4-[(1R)-1-[(5-chloro-1-methyl-1H-indol-2-yl)formamido]ethyl]benzenesulfonyl}acetate]	2480 nM	
Cc1cc(Cl)c2cc(C(=O)N[C@H](C)c3ccc([S+]([O-])CC(=O)O)cc3)n(C)c2c1 (stereo partly drawn) [Example 12-004, 2-{4-[(1R)-1-[(4-chloro-1,6-dimethyl-1H-indol-2-yl)formamido]ethyl]benzenesulfinyl}acetic acid]	11 nM	18 nM
CC(C)OC(=O)CS(=O)(=O)c1ccc([C@@H](CO)NC(=O)c2cc(-c3ccc(F)cc3)nn2C)cc1 [Example 02-017, propan-2-yl 2-{4-[(1S)-1-{[3-(4-fluorophenyl)-1-methyl-1H-pyrazol-5-yl]formamido}-2-hydroxyethyl]benzenesulfonyl}acetate]	7710 nM	
C[C@@H](NC(=O)c1cc(-c2ccc(F)cc2)nn1C)c1ccc(S(=O)(=O)C2(C(=O)O)CCCC2)cc1 [Example 08-002, 1-{4-[(1R)-1-{[3-(4-fluorophenyl)-1-methyl-1H-pyrazol-5-yl]formamido}ethyl]benzenesulfonyl}cyclopentane-1-carboxylic acid]	74 nM	95 nM
Cc1cc2c(cc(C(=O)N[C@H](C)c3ccc(S(=O)(=O)CC(=O)O[13CH3])cc3)n2C)c(Cl)c1Cl [Example 01-022, (^13C)methyl 2-{4-[(1R)-1-[(4,5-dichloro-1,6-dimethyl-1H-indol-2-yl)formamido]ethyl]benzenesulfonyl}acetate]	414 nM	
COC(=O)CS(=O)(=O)c1ccc([C@H](C)NC(=O)c2cc3c(Cl)c(Cl)c(C)cc3n2C)cc1 [Example 01-017, methyl 2-{4-[(1S)-1-[(4,5-dichloro-1,6-dimethyl-1H-indol-2-yl)formamido]ethyl]benzenesulfonyl}acetate]	6720 nM	
Cc1cc(Cl)c2cc(C(=O)N[C@H](C)c3ccc([S+]([O-])CC(=O)OC(C)C)cc3)n(C)c2c1 (stereo partly drawn) [Example 13-007, propan-2-yl 2-{4-[(1R)-1-[(4-chloro-1,6-dimethyl-1H-indol-2-yl)formamido]ethyl]benzenesulfinyl}acetate]	2140 nM	
COC(=O)C(C)(C)S(=O)(=O)c1ccc([C@@H](C)NC(=O)c2cc3c(Cl)cc(C)cc3n2C)cc1 [Example 05-007, methyl 2-{4-[(1R)-1-[(4-chloro-1,6-dimethyl-1H-indol-2-yl)formamido]ethyl]benzenesulfonyl}-2-methylpropanoate]	4520 nM	
COc1cc(-c2cc(C(=O)N[C@H](C)c3ccc(S(=O)(=O)CC(=O)OC(C)C)cc3)n(C)n2)ccc1F [Example 02-012, propan-2-yl 2-{4-[(1R)-1-{[3-(4-fluoro-3-methoxyphenyl)-1-methyl-1H-pyrazol-5-yl]formamido}ethyl]benzenesulfonyl}acetate]	3720 nM	
CC(C)OC(=O)CS(=O)(=O)c1ccc([C@@H](CO)NC(=O)c2cc3c(Cl)cc(N4CCN(C)CC4)cc3n2C)cc1 [Example 01-040, propan-2-yl 2-{4-[(1S)-1-{[4-chloro-1-methyl-6-(4-methylpiperazin-1-yI)-1H-indol-2-yl]formamido}-2-hydroxyethyl]benzenesulfonyl}acetate]	981 nM	
COCCOC(=O)CS(=O)(=O)c1ccc([C@@H](C)NC(=O)c2cc(-c3ccccc3)nn2C)cc1 [Example 10-001, 2-methoxyethyl 2-{4-[(1R)-1-[(1-methyl-3-phenyl-1H-pyrazol-5-yl)formamido]ethyl]benzenesulfonyl}acetate]	1450 nM	
CCOC(=O)CS(=O)(=O)c1ccc([C@@H](C)NC(=O)c2cc(-c3ccccc3)nn2C)cc1 [Example 02-003, ethyl 2-{4-[(1R)-1-[(1-methyl-3-phenyl-1H-pyrazol-5-yl)formamido]ethyl]benzenesulfonyl}acetate]	3180 nM	
COC(=O)C[S@@+]([O-])c1ccc([C@@H](C)NC(=O)c2cc3c(Cl)cc(C)cc3n2C)cc1 [Example 11-006, methyl 2-[(R)-4-[(1R)-1-[(4-chloro-1,6-dimethyl-1H-indol-2-yl)formamido]ethyl]benzenesulfinyl]acetate]	1120 nM	
